The subject of data set [1] is hepatic cytochrome C. Put plainly: Western blotting of liver, cytochrome C. Format: in vivo, mouse. As to conditions: HFD+NCT vs HFD, FIGS. 3D-3F. As to the method:
(§1) NCT oral administration. Four-week-old male C57BL/6J (JAX cat #000664) mice were purchased from Jackson laboratory and were maintained in a 12 h light/dark cycle throughout the experiment. Prior to the experiments, mice were acclimated for 2 weeks. Six-week-old mice with similar body weights were randomized to a normal diet (NC), a high fat diet (HFD) (Research Diets, cat #D12492 60 kcal % fat) or HFD containing 4000 ppm NCT (HFD+NCT) (Research Diets, 60 kcal % fat+4000 ppm NCT), which was calculated to provide approximately 400 mg/kg/d NCT. HFD chow containing NCT was made with gray dye to distinguish it from regular HFD chow that had green dye. Mice for each treatment group were placed in separate cages. Equal amounts of fresh chow were provided every week to all mice. Body weight gain and food intake were measured every week for 10 weeks. After 10 weeks of chow treatment, mice were sacrificed for analysis. All animal experiments were approved by the Institutional Animal Care and Use Committee (IACUC) of the Sanford Burnham Prebys Medical Discovery Institute in accordance with national regulations. Sample size was chosen based on the prior study of NCT delivered by IP injection.
(§2) Western blotting. Mouse liver extracts were prepared by incubation in RIPA buffer (Invitrogen) containing protease inhibitors (Calbiochem, SanDiego, CA). Protein was quantified by BCA assay (Thermo Scientific). […]

The subject of data set [2] is Sirt1 mRNA. The data set can be described thus: RT-PCR of mouse liver, Sirtuin1. Format: in vivo. The conditions noted are these: HFD+NCT vs HFD, FIG. 4D. As to the method:
as §1, with “All animal experiments were approved by the Institutional Animal Care and Use Committee (IACUC) of the Sanford Burnham Prebys Medical Discovery Institute in accordance with national regulations. Sample size was chosen based on the prior study of NCT delivered by IP injection.” left out
(§3) RT-PCR. […] Quantitative real time PCR (RT-PCR) analysis was performed using SYBR® Select Master Mix (Applied Biosystems) and an ABI 7900HT thermal cycler (Applied Biosystems, Thermo Fisher Scientific). Ct values were normalized to 18s rRNA and are expressed as fold change over samples from mice fed NC or cultured human hepatocytes without NCT.

Data set [3] deals with Sirt3 mRNA. Put plainly: RT-PCR of mouse liver, Sirtuin3. Format: in vivo. The conditions noted are these: HFD+NCT vs HFD, FIG. 4E. As to the method:
as §1, with “All animal experiments were approved by the Institutional Animal Care and Use Committee (IACUC) of the Sanford Burnham Prebys Medical Discovery Institute in accordance with national regulations. Sample size was chosen based on the prior study of NCT delivered by IP injection.” left out
as §3

Data set [4] deals with PPARGC1A mRNA. The data set can be described thus: RT-PCR of mouse liver, PPARGC1A. The class given is in vivo. The conditions noted are these: HFD+NCT vs HFD, FIGS. 4A-4C. As to the method:
as §1, with “All animal experiments were approved by the Institutional Animal Care and Use Committee (IACUC) of the Sanford Burnham Prebys Medical Discovery Institute in accordance with national regulations. Sample size was chosen based on the prior study of NCT delivered by IP injection.” left out
as §3

The subject of data set [5] is citrate synthase. Put plainly: Citrate synthase activity in liver homogenate. Format: in vivo, mouse. As to conditions: HFD+NCT vs HFD, FIGS. 3A-3C. As to the method: as §1, with “Sample size was chosen based on the prior study of NCT delivered by IP injection.” left out
Citrate synthase activity. Citrate synthase activity in liver homogenate was measured according to manufacturer's instructions using a calorimetry based MitoCheck Citrate Synthase Activity Assay Kit (Cat #701040, Cayman Chemicals, USA).

Data set [6] concerns IL-6 mRNA. Put plainly: RT-PCR of mouse liver, IL-6. Format: in vivo. As to conditions: HFD+NCT vs HFD, FIG. 5A. As to the method:
as §1, with “All animal experiments were approved by the Institutional Animal Care and Use Committee (IACUC) of the Sanford Burnham Prebys Medical Discovery Institute in accordance with national regulations. Sample size was chosen based on the prior study of NCT delivered by IP injection.” left out
as §3

Data set [7] concerns DNA encoding the mitochondrial genes ND1. Put plainly: Mitochondrial DNA analysis of liver, ND1. Format: in vivo. As to conditions: mouse liver, HFD+NCT vs HFD, FIG. 3K. As to the method:
as §1
(§4) Quantification of mtDNA was performed. […]

Data set [8] relates to PPARGC1A(PGC1a). Put plainly: Western blotting of liver, PPARGC1A(PGC1a). Format: in vivo, mouse. As to conditions: HFD+NCT vs HFD, FIGS. 4A-4C. As to the method:
as §1, §2
(In general: A western blot detects proteins with antibodies after separation by electrophoresis.)

Data set [9] deals with TNFα mRNA. Put plainly: RT-PCR of primary human hepatocytes, TNFα. Format: cell-based. As to conditions: HEP-fat media, NCT 5, 15, and 40 μM, dose-responsive manner, FIG. 5F. As to the method:
(§5) Primary human hepatocytes. Experiments with primary human hepatocytes were performed by CN-Bio (Cambridge, UK). Briefly, primary human hepatocytes (PHHs), human Kupffer cells (HKs) and human stellate cells (HSCs) were seeded onto CN-Bio's PhysioMimix LC12 MPS culture plates at 6×10^5 cells for PHHs and 6×10^4 cells for HKs and HSCs in 1.6 ml of CN-Bio's HEP-lean media with 5% FCS. Throughout the experiment the cells were maintained at a flow rate of 1 μl/s. After 24 hours (Day 1) of seeding, the media was changed to HEP-lean media and the cells were incubated until day 4 to allow the cells to form microtissues. At day 4 post seeding, media was changed to HEP-fat media and treated with DMSO or NCT (5, 15, and 40 μM). Media was replaced on days 6 and 8. Cells were harvested on day 10 for RNA extraction and culture media was collected for ELISA analysis.
as §3

In data set [10] the test system is mitochondrial fatty acid oxidation (FAO) activity. Put plainly: Fatty acid oxidation assay in liver lysate. Format: in vivo, mouse. As to the method:
as §1
Fatty acid oxidation assay. FAO in liver lysate was measured according to manufacturer's instructions using a calorimetric assay kit (Cat #E-141, Biomedical Research Service Center, State University of New York, Buffalo, NY).
Thus, the effect of NCT on FAO appeared to be a secondary rather than primary effect.

In data set [11] the test system is DNA encoding the mitochondrial genes 16s rRNA. The data set can be described thus: Mitochondrial DNA analysis of liver, 16s rRNA. The class given is in vivo. As to conditions: mouse liver, HFD+NCT vs HFD, FIG. 3L. As to the method: as §1, §4
For data set [12] the following is noted: cited from earlier work.
For data set [13], the system named is IL-6 protein. The data set can be described thus: ELISA of culture media of primary human hepatocytes, IL-6. Format: cell-based. As to conditions: HEP-fat media, NCT 5, 15, and 40 μM, FIG. 5D. As to the method:
as §5
On the technique in general: In an ELISA, binding on a coated surface is turned into a signal by an enzyme label.

[14] abbreviates: liver lysate, HFD+NCT vs HFD, 10 weeks.

This is an account of results in patent US20240315991A1, “USES OF HNF4 ALPHA AGONISTS” (Sanford Burnham Prebys Medical Discovery Institute, priority 2023, published 2024).

Structures are written as SMILES. Entries after “also recorded” stand apart in the source; their conditions may differ.

For the compound `O=C(/C=C/c1ccc(O)c(O)c1)NCCc1ccc(O)cc1` [NCT, N-trans caffeoyltyramine], in [1], the “hepatic cytochrome C protein level” value is “reverse the depression”. In addition, the “Sirt1 mRNA in mouse liver” value in [2] is listed as “reverse the depression”. In addition, the “Sirt3 mRNA in mouse liver” value in data set [3] was “reverse the depression”. Further, the “PPARGC1A(PGC1a) mRNA level in mouse liver” value in data set [4] is “increase”. In data set [5], the “citrate synthase level in liver” value is recorded as “reverse the depression”. The “IL-6 level in livers of mice on HFD” value in [6] is given as “decreased”. For the same compound, the “IL-6 level in livers of mice on HFD” value in data set [6] (listed as Compound A) is given as “decrease”. Further, the “level of DNA encoding the mitochondrial genes ND1” value in [7] is reported as “increase”. Besides, the “PPARGC1A(PGC1a) protein level in mouse liver” value in data set [8] is “increase”. The “TNFα mRNA level in cultured human hepatocytes” value in data set [9] is on record as “decrease”. Also, in data set [10] (setting [14]), the “FAO activity in the presence of octanoyl CoA” value is reported as “increase”, the “baseline FAO activity in the absence of octanoyl CoA” value is given as “increase” and the “overall FAO activity in the assay” value is reported as “unchanged; also recorded: non-significant”. For the same compound, in data set [10] (mice fed HFD containing NCT vs HFD alone), the fatty acid oxidation result was “increased”. Further, the “level of DNA encoding the mitochondrial genes 16s rRNA” value in [11] was “increase”. Further, the oral bioavailability result in data set [12] is reported as “poor”. In addition, the “IL-6 protein level secreted by cultured human hepatocytes” value in data set [13] is given as “decrease”.
